Source: US20250066371A1, “FLUOROALKOXYALKYLENE-DIHYDROIMIDAZO[5,1-D]TETRAZINONE COMPOUNDS AND RELATED COMPOUNDS AND THEIR USE IN TREATING MEDICAL CONDITIONS” (priority 2023, published 2025)

What was measured:
Assay in all cases: Cell panel nuclear dye assay
Assay type in all cases: cell-based
[1] = tested on: 647-V; details: Homo sapiens, 120 h, Bladder, 5-day incubation
Method: (§1) Cells were grown in RPMI1640, 10% FBS, 2 mM L-alanyl-L-glutamine, 1 mM Na pyruvate, or a special medium. Cells were seeded into 384-well plates and incubated in a humidified atmosphere of 5% CO2 at 37° C. Compound was added the day following cell seeding. At the same time, a time zero untreated cell plate was generated. After a 5-day incubation period, cells were fixed and stained to allow fluorescence imaging of nuclei.
(§2) Compounds were serially diluted in 2-fold steps from the highest test concentration specified, and assayed over 10 concentrations with a maximum assay concentration of 0.1% DMSO. Automated fluorescence microscopy was carried out using a Molecular Devices ImageXpress Micro XL high-content imager, and images were collected with a 4× objective. 16-bit TIFF images were acquired and analyzed with MetaXpress 5.1.0.41 software.
(§3) Cell proliferation was measured by the fluorescence intensity of an incorporated nuclear dye. The output is referred to as the relative cell count, where the measured nuclear intensity is transformed to percent of control (POC) using the following formula: […]
(§4) Cell count IC50 is the test compound concentration at 50% of maximal possible response. EC50 is the test compound concentration at the curve inflection point or half the effective response (parameter C of the fitted curve solution). GI50 is the concentration needed to reduce the observed growth by half (midway between the curve maximum and the time zero value). Activity area is an estimate of the integrated area above the curve. Activity area values range from 0-10, where a value of zero indicates no inhibition of proliferation at all concentrations, and a value of 10 indicates complete inhibition of proliferation at all concentrations. In rare instances, values <0 or >10 may be observed. In these instances, values <0 should be considered as equivalent to 0, whereas values >10 should be considered equivalent to 10.

[2] = tested on: BC-1; details: Homo sapiens, BC1, 120 h, Lymphoma (B-cell), 5-day incubation
Method: as §1, §2, §3, §4

[3] = tested on: BFTC-905; details: Homo sapiens, 120 h, Bladder, 5-day incubation
Method: as §1, §2, §3, §4

[4] = tested on: C32; details: Homo sapiens, 120 h, Melanoma, 5-day incubation
Method: as §1, §2, §3, §4

[5] = tested on: CHP-212; details: Homo sapiens, 120 h, Neuroblastoma, 5-day incubation
Method: as §1, §2, §3, §4

[6] = tested on: DBTRG-05MG; details: Homo sapiens, 120 h, Glioma (glioblastoma multiforme), 5-day incubation
Method: as §1, §2, §3, §4

[7] = tested on: DK-MG; details: 120 h, Glioma, 5-day incubation
Method: as §1, §2, §3, §4

[8] = tested on: HOS; details: Homo sapiens, 120 h, Osteosarcoma, 5-day incubation
Method: as §1, §2, §3, §4

[9] = tested on: Hs 294T; details: Homo sapiens, 120 h, Melanoma, 5-day incubation
Method: as §1, §2, §3, §4

[10] = tested on: M059J; details: Homo sapiens, 120 h, Glioma (glioblastoma), 5-day incubation
Method: as §1, §2, §3, §4

[11] = tested on: MeWo; details: Homo sapiens, 120 h, Melanoma, 5-day incubation
Method: as §1, §2, §3, §4

[12] = tested on: NCI-H441; details: Homo sapiens, 120 h, Lung (NSCLC), 5-day incubation
Method: as §1, §2, §3, §4

[13] = tested on: NCI-H446; details: Homo sapiens, 120 h, Lung (SCLC), 5-day incubation
Method: as §1, §2, §3, §4

[14] = tested on: NCI-H661; details: Homo sapiens, 120 h, Lung (NSCLC), 5-day incubation
Method: as §1, §2, §3, §4

[15] = tested on: NCI-H69; details: Homo sapiens, 120 h, Lung (SCLC), 5-day incubation
Method: as §1, §2, §3, §4

[16] = tested on: NCI-H747; details: Homo sapiens, 120 h, Colon (cecum), 5-day incubation
Method: as §1, §2, §3, §4

[17] = tested on: OE21; details: 120 h, Head & neck (squamous cell carcinoma, esophagus), 5-day incubation
Method: as §1, §2, §3, §4

[18] = tested on: SCC-9; details: Homo sapiens, 120 h, Head & neck (squamous cell carcinoma, tongue), 5-day incubation
Method: as §1, §2, §3, §4

[19] = tested on: SK-LMS-1; details: Homo sapiens, 120 h, Sarcoma (leiomyosarcoma), 5-day incubation
Method: as §1, §2, §3, §4

[20] = tested on: SNB-19; details: Homo sapiens, 120 h, Glioma (astrocytoma), 5-day incubation
Method: as §1, §2, §3, §4

[21] = tested on: SR; details: Homo sapiens, 120 h, Lymphoma (large cell immunoblastic), 5-day incubation
Method: as §1, §2, §3, §4

[22] = tested on: SW1088; details: Homo sapiens, 120 h, Glioma (astrocytoma), 5-day incubation
Method: as §1, §2, §3, §4

[23] = tested on: SW48; details: Homo sapiens, 120 h, Colon, 5-day incubation
Method: as §1, §2, §3, §4

[24] = tested on: SW620; details: Homo sapiens, SW-620, 120 h, Colon, 5-day incubation
Method: as §1, §2, §3, §4

[25] = tested on: SaOS2; details: Homo sapiens, SAOS-2, 120 h, Osteosarcoma, 5-day incubation
Method: as §1, §2, §3, §4

[26] = tested on: U-87 MG; details: Homo sapiens, 120 h, Glioma (glioblastoma), 5-day incubation
Method: as §1, §2, §3, §4

With `NC(=O)c1ncn2c(=O)n(CCOC(F)(F)F)nnc12` [Compound I-1, 4-Oxo-3-(2-(trifluoromethoxy)ethyl)-3,4-dihydroimidazo[5,1-d][1,2,3,5]tetrazine-8-carboxamide] as the compound, how does the EC50 [1] read?
Its EC50 is 30 to 70 µM.

What about the IC50 [1] of the same compound?
Its IC50 is 30 to 70 µM.

What about the EC50 [2] of the same compound?
Its EC50 is ≤ 30 µM.

And the IC50 [2]?
Its IC50 is ≤ 30 µM.

And the EC50 [3]?
The EC50 was 30 to 70 µM.

And the IC50 [3]?
The IC50 was 30 to 70 µM.

What about the EC50 [4] of the same compound?
The EC50 was 30 to 70 µM.

What about the IC50 [4] of the same compound?
Its IC50 is 70 to 150 µM.

And the EC50 [5]?
The EC50 was ≤ 30 µM.

And the IC50 [5]?
The IC50 was ≤ 30 µM.

And the EC50 [6]?
The EC50 was ≤ 30 µM.

What about the IC50 [6] of the same compound?
Its IC50 is ≤ 30 µM.

What about the EC50 [7] of the same compound?
The EC50 was ≤ 30 µM.

What about the IC50 [7] of the same compound?
The IC50 was 30 to 70 µM.

What about the EC50 [8] of the same compound?
The EC50 was 30 to 70 µM.

And the IC50 [8]?
Its IC50 is 30 to 70 µM.

And the EC50 [9]?
Its EC50 is ≤ 30 µM.

And the IC50 [9]?
The IC50 was ≤ 30 µM.

What about the EC50 [10] of the same compound?
The EC50 was 30 to 70 µM.

What about the IC50 [10] of the same compound?
The IC50 was 30 to 70 µM.

What about the EC50 [11] of the same compound?
The EC50 was > 150 µM.

What about the IC50 [11] of the same compound?
The IC50 was > 150 µM.

What about the EC50 [12] of the same compound?
Its EC50 is > 150 µM.

What about the IC50 [12] of the same compound?
Its IC50 is > 150 µM.

And the EC50 [13]?
Its EC50 is 30 to 70 µM.

What about the IC50 [13] of the same compound?
The IC50 was 30 to 70 µM.

And the EC50 [14]?
The EC50 was ≤ 30 µM.

And the IC50 [14]?
Its IC50 is > 150 µM.

What about the EC50 [15] of the same compound?
Its EC50 is ≤ 30 µM.

And the IC50 [15]?
Its IC50 is ≤ 30 µM.

What about the EC50 [16] of the same compound?
Its EC50 is > 150 µM.

And the IC50 [16]?
Its IC50 is > 150 µM.

What about the EC50 [17] of the same compound?
The EC50 was 30 to 70 µM.

What about the IC50 [17] of the same compound?
Its IC50 is 30 to 70 µM.

And the EC50 [18]?
The EC50 was 70 to 150 µM.

What about the IC50 [18] of the same compound?
The IC50 was 70 to 150 µM.

What about the EC50 [19] of the same compound?
Its EC50 is 30 to 70 µM.

And the IC50 [19]?
The IC50 was 30 to 70 µM.

What about the EC50 [20] of the same compound?
Its EC50 is 30 to 70 µM.

What about the IC50 [20] of the same compound?
The IC50 was 30 to 70 µM.

What about the EC50 [21] of the same compound?
The EC50 was ≤ 30 µM.

And the IC50 [21]?
The IC50 was ≤ 30 µM.

And the EC50 [22]?
Its EC50 is 70 to 150 µM.

And the IC50 [22]?
Its IC50 is 70 to 150 µM.

What about the EC50 [23] of the same compound?
The EC50 was ≤ 30 µM.

And the IC50 [23]?
Its IC50 is ≤ 30 µM.

And the EC50 [24]?
The EC50 was 70 to 150 µM.

What about the IC50 [24] of the same compound?
The IC50 was 70 to 150 µM.

And the EC50 [25]?
The EC50 was ≤ 30 µM.

What about the IC50 [25] of the same compound?
Its IC50 is ≤ 30 µM.

And the EC50 [26]?
Its EC50 is 30 to 70 µM.

And the IC50 [26]?
Its IC50 is 70 to 150 µM.
